Legend:
Surinam grass = assay: Test B pre-/postemergence herbicide test; type: in vivo, Urochloa decumbens; conditions: for Plant response rating (0 to 100 scale), Surinam Grass: 0 is no effect
Outline: (§1)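 Seeds were planted and treated preemergence with compounds formulated in a non-phytotoxic solvent mixture containing surfactant, while plants at the 1- to 4-leaf stage (2 to 18 cm) received postemergence sprays. Flooded paddy plants were grown to the 2-leaf stage. After 13 to 15 days in a greenhouse, injury was visually rated 0–100 against untreated controls.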

barnyardgrass [1] = assay: Test B pre-/postemergence herbicide test; type: in vivo, Echinochloa crus-galli; conditions: for Plant response rating (0 to 100 scale), Barnyardgrass: 0 is no effect
Outline: (§2)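 Pre: seeds sown, then sprayed. Post: 1–4-leaf plants (2–18 cm) sprayed at the same time. Paddy: flooded, treated at 2-leaf stage. Formulation: non-phytotoxic solvent with surfactant. Greenhouse 13–15 days; visual 0–100 score relative to controls.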

rice [2] = assay: Test B flooded paddy test; type: in vivo, Oryza sativa; conditions: 1000 g ai/ha, scale 0 to 100 (0 no effect, 100 complete control)
Outline: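 Visual ratings, 0 (no effect) to 100 (complete control), made versus controls after 13–15 d greenhouse. Paddy plants treated at 2-leaf stage; postemergence plants at 1- to 4-leaf stage, 2–18 cm tall.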

corn = assay: Test B pre-/postemergence herbicide test; type: in vivo, Zea mays; conditions: for Plant response rating (0 to 100 scale), Corn: 0 is no effect
Outline: as §1

wild oat = assay: Test B postemergence herbicide test; type: in vivo, Avena fatua
Outline: (§3)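 Scale 0–100: zero equals no visible effect, 100 complete control, judged by eye relative to controls. Timing: 13 to 15 days in greenhouse post-treatment. Growth stage at spraying: two leaves (paddy) or one to four leaves, 2–18 cm (postemergence).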

wheat = assay: Test B postemergence herbicide test; type: in vivo, Triticum aestivum; design: key to Wheat plant response rating: 0 = no effect, 100 = complete control
Outline: as §3

lambsquarters = assay: Test B pre-/postemergence herbicide test; type: in vivo, Chenopodium album; conditions: for Plant response rating (0 to 100 scale), Lambsquarters: 0 is no effect
Outline: as §1

[3] = test system: smallflower umbrella sedge; assay: Test C flooded paddy test; type: in vivo, Cyperus difformis; conditions: for Plant response rating, Sedge, Umbrella: 500 g ai/ha, visual rating after 12 to 14 days
pigweed = assay: Test B pre-/postemergence herbicide test; type: in vivo, Amaranthus retroflexus; conditions: for Plant response rating (0 to 100 scale), Pigweed: 0 is no effect
Outline: as §1

morningglory = assay: Test B pre-/postemergence herbicide test; type: in vivo, Ipomoea coccinea; conditions: for Plant response rating (0 to 100 scale), Morningglory: 0 is no effect
Outline: as §2

cocklebur = assay: Test B pre-/postemergence herbicide test; type: in vivo, Xanthium strumarium; conditions: for Plant response rating (0 to 100 scale), Cocklebur: 0 is no effect
Outline: as §2

barnyardgrass [4] = assay: Test C flooded paddy test; type: in vivo, Echinochloa crus-galli; conditions: for Plant response rating, Barnyardgrass: 500 g ai/ha, visual rating after 12 to 14 days
Outline: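 Scoring by eye, 12–14 days post-treatment, greenhouse-held plants vs. controls; 0 no effect, 100 complete control. Sprayed at 1–4 leaves (2–18 cm); paddy barnyardgrass at 2 leaves, flooded.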

ducksalad [5] = assay: Test B flooded paddy test; type: in vivo, Heteranthera limosa; conditions: 1000 g ai/ha, scale 0 to 100 (0 no effect, 100 complete control)
Outline: (§4)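 Read-out: visual comparison with controls, scored 0 to 100, where 100 means complete control and 0 no effect. Formulated chemicals were applied postemergence to plants 2–18 cm tall (1- to 4-leaf), or to flooded-paddy plants at the 2-leaf stage, then held 13 to 15 days under glass.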

large crabgrass = assay: Test B pre-/postemergence herbicide test; type: in vivo, Digitaria sanguinalis; conditions: for Plant response rating (0 to 100 scale), Crabgrass, Large: 0 is no effect
Outline: as §1

giant foxtail = assay: Test B pre-/postemergence herbicide test; type: in vivo, Setaria faberi; conditions: for Plant response rating (0 to 100 scale), Foxtail, Giant: 0 is no effect
Outline: as §1

ducksalad [6] = assay: Test C flooded paddy test; type: in vivo, Heteranthera limosa; conditions: for Plant response rating, Ducksalad: 500 g ai/ha, visual rating after 12 to 14 days
barnyardgrass [7] = assay: Test B flooded paddy test; type: in vivo, Echinochloa crus-galli; conditions: 1000 g ai/ha, scale 0 to 100 (0 no effect, 100 complete control)
Outline: as §4

[8] = test system: small flower umbrella sedge; assay: Test B flooded paddy test; type: in vivo, Cyperus difformis; conditions: 1000 g ai/ha, scale 0 to 100 (0 no effect, 100 complete control)
Outline: as §4

velvetleaf = assay: Test B pre-/postemergence herbicide test; type: in vivo, Abutilon theophrasti; conditions: for Plant response rating (0 to 100 scale), Velvetleaf: 0 is no effect, preemergence
Outline: as §1

rice [9] = assay: Test C flooded paddy test; type: in vivo, Oryza sativa; conditions: for Plant response rating, Rice: 500 g ai/ha, visual rating after 12 to 14 days
Outline: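 Injury scored visually against controls on a 0 (no effect) to 100 (complete control) scale, 12 to 14 days after treatment in greenhouse. Flooded paddy plants treated at 2-leaf stage; postemergence plants at 1- to 4-leaf stage, 2 to 18 cm tall.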

blackgrass = assay: Test B postemergence herbicide test; type: in vivo, Alopecurus myosuroides
Outline: as §4

[10] = 125 g ai/ha, 100 is complete control, preemergence
[11] = 125 g ai/ha, visual rating, scale 0 (no effect) to 100 (complete control), postemergence
[12] = 500 g ai/ha, visual rating, 0 = no effect, 100 = complete control, preemergence
[13] = postemergence, 500 g ai/ha, scale 0 to 100, 0 is no effect, 100 is complete control
[14] = 125 g ai/ha, scale 0 to 100 (0 no effect, 100 complete control)
[15] = 250 g ai/ha, scale of 0 to 100, 0 is no effect, 100 is complete control
[16] = scale 0 to 100 (0 no effect, 100 complete control)
[17] = 62 g ai/ha, scale 0 to 100 (0 no effect, 100 complete control)
[18] = 125 g ai/ha, 100 is complete control
[19] = Postemergence, 500 g ai/ha, scale 0 (no effect) to 100 (complete control)

CCc1nn(C(C)C)nc1C(=O)Nc1cccc(C(=O)N2CC=CC2)c1 [Compound 359]
Plant response rating (0 to 100 scale), Surinam Grass (Surinam grass; [10]): 20 | Surinam Grass plant response rating (Surinam grass; [11]): 10 | Plant response rating, Surinam Grass (Surinam grass; [12]): 70 | Surinam Grass plant response rating (Surinam grass; [13]): 10 | Plant response rating (0 to 100 scale), Barnyardgrass (barnyardgrass [1]; [10]): 0 | Barnyardgrass plant response rating (barnyardgrass [1]; [11]): 10 | Plant response rating, Barnyardgrass (barnyardgrass [1]; [12]): 90 | Barnyardgrass plant response rating (barnyardgrass [1]; [13]): 10 | Rice plant response rating (rice [2]): 70 | Plant response rating (0 to 100 scale), Corn (corn; [10]): 0 | Corn plant response rating (corn; [11]): 10 | Plant response rating, Corn (corn; [12]): 60 | Corn plant response rating (corn; [13]): 10 | Oat, Wild plant response rating (wild oat; [11]): 20 | Oat, Wild plant response rating (wild oat; [13]): 30 | Wheat plant response rating (wheat; [11]): 0 | Wheat plant response rating (wheat; [13]): 20 | Plant response rating (0 to 100 scale), Lambsquarters (lambsquarters; [10]): 0 | Lambsquarters plant response rating (lambsquarters; [11]): 40 | Plant response rating, Lambsquarters (lambsquarters; [12]): 100 | Lambsquarters plant response rating (lambsquarters; [13]): 50 | Sedge, Umbrella plant response rating ([3]; 62 g ai/ha, scale 0 to 100): 80 | Sedge, Umbrella plant response rating [3, 14]: 90 | Sedge, Umbrella plant response rating [3, 15]: 90 | Plant response rating, Sedge, Umbrella [3, 16]: 95 | Plant response rating (0 to 100 scale), Pigweed (pigweed; [10]): 0 | Pigweed plant response rating (pigweed; [11]): 20 | Plant response rating, Pigweed (pigweed; [12]): 100 | Pigweed plant response rating (pigweed; [13]): 50 | Plant response rating (0 to 100 scale), Morningglory (morningglory; [10]): 0 | Morningglory plant response rating (morningglory; [11]): 10 | Plant response rating, Morningglory (morningglory; [12]): 50 | Morningglory plant response rating (morningglory; [13]): 10 | Plant response rating (0 to 100 scale), Cocklebur (cocklebur; [10]): 0 | Cocklebur plant response rating (cocklebur; [11]): 10 | Plant response rating, Cocklebur (cocklebur; [12]): 30 | Cocklebur plant response rating (cocklebur; [13]): 30 | Barnyardgrass plant response rating (barnyardgrass [4]; [17]): 15 | Barnyardgrass plant response rating (barnyardgrass [4]; [14]): 55 | Barnyardgrass plant response rating (barnyardgrass [4]; [15]): 75 | Plant response rating, Barnyardgrass (barnyardgrass [4]; [16]): 75 | Ducksalad plant response rating (ducksalad [5]): 70 | Plant response rating (0 to 100 scale), Crabgrass, Large (large crabgrass; [10]): 90 | Crabgrass, Large plant response rating (large crabgrass; [11]): 10 | Plant response rating, Crabgrass, Large (large crabgrass; [12]): 100 | Crabgrass, Large plant response rating (large crabgrass; [13]): 20 | Plant response rating (0 to 100 scale), Foxtail, Giant (giant foxtail; [10]): 60 | Foxtail, Giant plant response rating (giant foxtail; [11]): 20 | Plant response rating, Foxtail, Giant (giant foxtail; [12]): 100 | Foxtail, Giant plant response rating (giant foxtail; [13]): 20 | Ducksalad plant response rating (ducksalad [6]; 62 g ai/ha, scale 0 to 100): 40 | Ducksalad plant response rating (ducksalad [6]; [14]): 80 | Ducksalad plant response rating (ducksalad [6]; [15]): 85 | Plant response rating, Ducksalad (ducksalad [6]; [16]): 90 | Barnyardgrass plant response rating (barnyardgrass [7]): 70 | Sedge, Umbrella plant response rating [8]: 80 | Plant response rating (0 to 100 scale), Velvetleaf (velvetleaf; [18]): 0 | Velvetleaf plant response rating (velvetleaf; [11]): 20 | Velvetleaf plant response rating (velvetleaf; [13]): 20 | Rice plant response rating (rice [9]; 62 g ai/ha, scale 0 to 100): 20 | Rice plant response rating (rice [9]; [14]): 45 | Rice plant response rating (rice [9]; [15]): 65 | Plant response rating, Rice (rice [9]; [16]): 80 | Blackgrass plant response rating (blackgrass; [11]): 20 | Blackgrass plant response rating (blackgrass; [13]): 50

CCNC(=O)c1cccc(NC(=O)c2nn(C(C)C)nc2C)c1 [Compound 405]
Plant response rating (0 to 100 scale), Surinam Grass (Surinam grass; [10]): 0 | Surinam Grass plant response rating (Surinam grass; [11]): 0 | Surinam Grass plant response rating (Surinam grass; [19]): 10 | Plant response rating (0 to 100 scale), Barnyardgrass (barnyardgrass [1]; [10]): 10 | Barnyardgrass plant response rating (barnyardgrass [1]; [11]): 10 | Barnyardgrass plant response rating (barnyardgrass [1]; [19]): 10 | Rice plant response rating (rice [2]): 50 | Plant response rating (0 to 100 scale), Corn (corn; [10]): 0 | Corn plant response rating (corn; [11]): 10 | Corn plant response rating (corn; [19]): 10 | Oat, Wild plant response rating (wild oat; [11]): 0 | Oat, Wild plant response rating (wild oat; [19]): 10 | Wheat plant response rating (wheat; [11]): 0 | Wheat plant response rating (wheat; 500 g ai/ha, scale 0 to 100, 0 no effect, 100 complete control, preemergence): 20 | Wheat plant response rating (wheat; [19]): 0 | Plant response rating (0 to 100 scale), Lambsquarters (lambsquarters; [10]): 70 | Lambsquarters plant response rating (lambsquarters; [11]): 50 | Lambsquarters plant response rating (lambsquarters; [19]): 70 | Sedge, Umbrella plant response rating ([3]; 62 g ai/ha, scale 0 to 100): 40 | Sedge, Umbrella plant response rating [3, 14]: 50 | Sedge, Umbrella plant response rating [3, 15]: 70 | Plant response rating, Sedge, Umbrella [3, 16]: 70 | Plant response rating (0 to 100 scale), Pigweed (pigweed; [10]): 10 | Pigweed plant response rating (pigweed; [11]): 30 | Pigweed plant response rating (pigweed; [19]): 50 | Plant response rating (0 to 100 scale), Morningglory (morningglory; [10]): 30 | Morningglory plant response rating (morningglory; [11]): 20 | Morningglory plant response rating (morningglory; [19]): 60 | Plant response rating (0 to 100 scale), Cocklebur (cocklebur; [10]): 0 | Cocklebur plant response rating (cocklebur; [11]): 10 | Cocklebur plant response rating (cocklebur; [19]): 20 | Barnyardgrass plant response rating (barnyardgrass [4]; [17]): 0 | Barnyardgrass plant response rating (barnyardgrass [4]; [14]): 0 | Barnyardgrass plant response rating (barnyardgrass [4]; [15]): 0 | Plant response rating, Barnyardgrass (barnyardgrass [4]; [16]): 20 | Ducksalad plant response rating (ducksalad [5]): 80 | Plant response rating (0 to 100 scale), Crabgrass, Large (large crabgrass; [10]): 30 | Crabgrass, Large plant response rating (large crabgrass; [11]): 10 | Crabgrass, Large plant response rating (large crabgrass; [19]): 20 | Plant response rating (0 to 100 scale), Foxtail, Giant (giant foxtail; [10]): 0 | Foxtail, Giant plant response rating (giant foxtail; [11]): 0 | Foxtail, Giant plant response rating (giant foxtail; [19]): 20 | Ducksalad plant response rating (ducksalad [6]; 62 g ai/ha, scale 0 to 100): 0 | Ducksalad plant response rating (ducksalad [6]; [14]): 0 | Ducksalad plant response rating (ducksalad [6]; [15]): 20 | Plant response rating, Ducksalad (ducksalad [6]; [16]): 30 | Barnyardgrass plant response rating (barnyardgrass [7]): 40 | Sedge, Umbrella plant response rating [8]: 90 | Plant response rating (0 to 100 scale), Velvetleaf (velvetleaf; [18]): 0 | Velvetleaf plant response rating (velvetleaf; [11]): 10 | Velvetleaf plant response rating (velvetleaf; [19]): 30 | Rice plant response rating (rice [9]; 62 g ai/ha, scale 0 to 100): 0 | Rice plant response rating (rice [9]; [14]): 0 | Rice plant response rating (rice [9]; [15]): 0 | Plant response rating, Rice (rice [9]; [16]): 20 | Blackgrass plant response rating (blackgrass; [11]): 0 | Blackgrass plant response rating (blackgrass; [19]): 10

From patent publication US20060069132A1, “Azolecarboxamide herbicides” (priority 2004, published 2006)
